From the OligoGym collection
After the bases stand the sugars from the 5' end (letter, count) and the backbone: PS all phosphorothioate, else s phosphorothioate and o phosphodiester by linkage. Methylation of C is not given here. e = 2'-O-(2-methoxyethyl) (MOE); l = locked nucleic acid (LNA); k = constrained ethyl (cEt); d = 2'-deoxy (DNA)

Tests used:
SNHG14 = details: ASO
SOD1 = details: ASO
[1] = Mouse Primary Neuronal Cell, 0.005 µM

“AAAATCTCAACTACCATTT (sugars l6 d7 l2 d2 l2, PS)” was tested. Which target mRNA inhibition (SNHG14; Human Neuronal Cell, 7.5 µM) did it give?
The target mRNA inhibition was 41%.

Which target mRNA inhibition (SNHG14; Human Neuronal Cell, 7.5 µM) does the source give for “AAAATCTCAACTACCATTT (sugars ldldllddddddddlllll, PS)” here?
The target mRNA inhibition was 31%.

For “AAAATCTCAACTACCATTT (sugars lldldlddddddddlllll, PS)”, which target mRNA inhibition (SNHG14; Human Neuronal Cell, 7.5 µM) is on record?
The target mRNA inhibition was 41%.

“AAAATCTCAACTACCATTTT (sugars ldlddlddddddddldllll, PS)” was tested. Which target mRNA inhibition (SNHG14; Human Neuronal Cell, 7.5 µM) did it give?
Its target mRNA inhibition is 28%.

With “AAAATCTCAACTACCATTTT (sugars ldlllldddddddddlddll, PS)” as the sequence, how does the target mRNA inhibition (SNHG14; Human Neuronal Cell, 7.5 µM) read?
The target mRNA inhibition was 50%.

How did the target mRNA inhibition (SNHG14; Human Neuronal Cell, 7.5 µM) turn out when “AAAATTATTTATACACCATC (sugars lldddldddddddldlllll, PS)” was run?
Its target mRNA inhibition is 55%.

Which target mRNA inhibition (SNHG14; Human Neuronal Cell, 7.5 µM) does the source give for “AAAATTATTTATACACCATC (sugars llldldldddddddllldll, PS)” here?
The target mRNA inhibition was 56%.

For “AAAGATCATTCTCAACAA (sugars ldddllddddddlldlll, PS)”, which target mRNA inhibition (SNHG14; Human Neuronal Cell, 7.5 µM) is on record?
The target mRNA inhibition was 33%.

How did the target mRNA inhibition (SNHG14; Human Neuronal Cell, 7.5 µM) turn out when “AAAGATCATTCTCAACAA (sugars lddlldddddddldllll, PS)” was run?
Its target mRNA inhibition is 66%.

How did the target mRNA inhibition (SNHG14; Human Neuronal Cell, 7.5 µM) turn out when “AAAGATCATTCTCAACAA (sugars ldllldddddddlldlll, PS)” was run?
Its target mRNA inhibition is 65%.

For “AAATCTCAACTACCATTTTT (sugars ldddlddddddddldlllll, PS)”, which target mRNA inhibition (SNHG14; Human Neuronal Cell, 7.5 µM) is on record?
The target mRNA inhibition was 46%.

How did the target mRNA inhibition (SNHG14; Human Neuronal Cell, 7.5 µM) turn out when “AAATTATTTATACACCATCA (sugars l1 d12 l3 d1 l3, PS)” was run?
The target mRNA inhibition was 40%.

For “AAATTATTTATACACCATCA (sugars ldlddldddddddldlldll, PS)”, which target mRNA inhibition (SNHG14; Human Neuronal Cell, 7.5 µM) is on record?
The target mRNA inhibition was 60%.

Which target mRNA inhibition (SNHG14; Human Neuronal Cell, 0.2 µM) does the source give for AACAACTCATGCCACA (sugars l2 d10 l4, PS) here?
The target mRNA inhibition was 53%.

And the target mRNA inhibition (SNHG14; Human Neuronal Cell, 1 µM)?
The target mRNA inhibition was 59%.

AACCCATTTCTAACAT (sugars l4 d10 l2, PS) was tested. Which target mRNA inhibition (SNHG14; Human Neuronal Cell, 0.2 µM) did it give?
The target mRNA inhibition was 35%.

And the target mRNA inhibition (SNHG14; Human Neuronal Cell, 1 µM)?
Its target mRNA inhibition is 56%.

How did the target mRNA inhibition (SNHG14; Human Neuronal Cell, 7.5 µM) turn out when “AAGATCATTCTCAACAAT (sugars l2 d1 l3 d8 l4, PS)” was run?
The target mRNA inhibition was 44%.

For “AAGATCATTCTCAACAAT (sugars l4 d9 l5, PS)”, which target mRNA inhibition (SNHG14; Human Neuronal Cell, 7.5 µM) is on record?
Its target mRNA inhibition is 52%.

AATCTCAACTACCATT (sugars l4 d10 l2, PS) was tested. Which target mRNA inhibition (SNHG14; Human Neuronal Cell, 0.2 µM) did it give?
The target mRNA inhibition was 60%.

What about the target mRNA inhibition (SNHG14; Human Neuronal Cell, 1 µM) of the same sequence?
Its target mRNA inhibition is 66%.

“AATTATTTATACACCATCAT (sugars ldddldlddddddldddlll, PS)” was tested. Which target mRNA inhibition (SNHG14; Human Neuronal Cell, 7.5 µM) did it give?
The target mRNA inhibition was 67%.

How did the target mRNA inhibition (SNHG14; Human Neuronal Cell, 7.5 µM) turn out when “AATTATTTATACACCATCAT (sugars lddllldddddddldlddll, PS)” was run?
The target mRNA inhibition was 71%.

How did the target mRNA inhibition (SNHG14; Human Neuronal Cell, 7.5 µM) turn out when “AATTATTTATACACCATCAT (sugars ldlldddddddddddldlll, PS)” was run?
The target mRNA inhibition was 62%.

For “AATTTTTTTCTTACTATCTT (sugars lddddldddddddldldlll, PS)”, which target mRNA inhibition (SNHG14; Human Neuronal Cell, 7.5 µM) is on record?
Its target mRNA inhibition is 50%.

For “AATTTTTTTCTTACTATCTT (sugars ldddldlddddddlldddll, PS)”, which target mRNA inhibition (SNHG14; Human Neuronal Cell, 7.5 µM) is on record?
The target mRNA inhibition was 34%.

How did the target mRNA inhibition (SNHG14; Human Neuronal Cell, 7.5 µM) turn out when “AATTTTTTTCTTACTATCTT (sugars llllddldddddddldddll, PS)” was run?
Its target mRNA inhibition is 49%.

How did the target mRNA inhibition (SNHG14; Human Neuronal Cell, 0.2 µM) turn out when ACAACTATTATCTTCT (sugars l3 d10 l3, PS) was run?
Its target mRNA inhibition is 40%.

What about the target mRNA inhibition (SNHG14; Human Neuronal Cell, 1 µM) of the same sequence?
The target mRNA inhibition was 57%.

How did the target mRNA inhibition (SNHG14; [1]) turn out when ACATCTCATACTTGCT (sugars l2 d11 l3, PS) was run?
The target mRNA inhibition was 96.3%.

How did the target mRNA inhibition (SNHG14; [1]) turn out when “ACATCTCATACTTGCTT (sugars l2 d12 l3, PS)” was run?
The target mRNA inhibition was 96.9%.

How did the target mRNA inhibition (SNHG14; Human Neuronal Cell, 0.2 µM) turn out when “ACATTATTATTTAACCT (sugars l3 d11 l3, PS)” was run?
Its target mRNA inhibition is 6%.

And the target mRNA inhibition (SNHG14; Human Neuronal Cell, 1 µM)?
Its target mRNA inhibition is 17%.

With “ACCACCTAAGACCTCAA (sugars l2 d11 l4, PS)” as the sequence, how does the target mRNA inhibition (SNHG14; Human Neuronal Cell, 0.2 µM) read?
The target mRNA inhibition was 38%.

What about the target mRNA inhibition (SNHG14; Human Neuronal Cell, 1 µM) of the same sequence?
Its target mRNA inhibition is 60%.

What does the source list for “ACCAGCTACAGGAACCTC (sugars l3 d12 l3, PS)”?
target mRNA inhibition (SNHG14; Human Neuronal Cell, 0.2 µM): -35%; target mRNA inhibition (SNHG14; Human Neuronal Cell, 1 µM): -33%; target mRNA inhibition (SNHG14; Human Neuronal Cell, 5 µM): -60%

For ACCTTAAGTAACATTT (sugars l4 d10 l2, PS), which target mRNA inhibition (SNHG14; Human Neuronal Cell, 0.2 µM) is on record?
The target mRNA inhibition was 36%.

What about the target mRNA inhibition (SNHG14; Human Neuronal Cell, 1 µM) of the same sequence?
Its target mRNA inhibition is 44%.

Which results are given for ACTAATGCAATAACCC (sugars l3 d10 l3, PS)?
target mRNA inhibition (SNHG14; Human Neuronal Cell, 0.2 µM): 45%; target mRNA inhibition (SNHG14; Human Neuronal Cell, 1 µM): 28%

How did the target mRNA inhibition (SNHG14; Human Neuronal Cell, 0.2 µM) turn out when “ACTCTCACTGTAACTTT (sugars l4 d11 l2, PS)” was run?
The target mRNA inhibition was 21%.

What about the target mRNA inhibition (SNHG14; Human Neuronal Cell, 1 µM) of the same sequence?
The target mRNA inhibition was 35%.

For “ACTCTGCAATACACCAA (sugars llddlddddddldldll, PS)”, which target mRNA inhibition (SNHG14; Human Neuronal Cell, 7.5 µM) is on record?
Its target mRNA inhibition is 33%.

How did the target mRNA inhibition (SNHG14; Human Neuronal Cell, 0.2 µM) turn out when “ACTGTTTATACCCTTTC (sugars l4 d11 l2, PS)” was run?
The target mRNA inhibition was 43%.

And the target mRNA inhibition (SNHG14; Human Neuronal Cell, 1 µM)?
Its target mRNA inhibition is 51%.

“ACTGTTTATACCCTTTCC (sugars l1 d15 l2, PS)” was tested. Which target mRNA inhibition (SNHG14; Human Neuronal Cell, 7.5 µM) did it give?
Its target mRNA inhibition is 40%.

Which target mRNA inhibition (SNHG14; Human Neuronal Cell, 7.5 µM) does the source give for “AGATCATTCTCAACAATT (sugars l1 d3 l2 d6 l6, PS)” here?
Its target mRNA inhibition is 54%.

For “AGATCATTCTCAACAATT (sugars l2 d1 l3 d10 l2, PS)”, which target mRNA inhibition (SNHG14; Human Neuronal Cell, 7.5 µM) is on record?
The target mRNA inhibition was 46%.

Which target mRNA inhibition (SNHG14; Human Neuronal Cell, 7.5 µM) does the source give for “AGATCATTCTCAACAATT (sugars ldllllddddddldddll, PS)” here?
Its target mRNA inhibition is 48%.

How did the target mRNA inhibition (SNHG14; Human Neuronal Cell, 7.5 µM) turn out when “AGATCATTCTCAACAATTA (sugars ldddllddddddldlddll, PS)” was run?
The target mRNA inhibition was 62%.

Which target mRNA inhibition (SOD1; A431, 0.12 µM) does the source give for “TGTTTAATGTTTATCA (sugars ekddddddddekekee, linkages s1 o1 s8 o3 s2)” here?
The target mRNA inhibition was 0%.

What about the target mRNA inhibition (SOD1; A431, 0.6 µM) of the same sequence?
Its target mRNA inhibition is 13%.

And the target mRNA inhibition (SOD1; A431, 3 µM)?
The target mRNA inhibition was 31%.

What about the target mRNA inhibition (SOD1; A431, 15 µM) of the same sequence?
The target mRNA inhibition was 49%.

“TGTTTAATGTTTATCAGG (sugars e5 d8 e5, linkages s1 o3 s9 o2 s2)” was tested. Which target mRNA inhibition (SOD1; A431, 0.12 µM) did it give?
Its target mRNA inhibition is 6%.

What about the target mRNA inhibition (SOD1; A431, 0.6 µM) of the same sequence?
The target mRNA inhibition was 26%.

What about the target mRNA inhibition (SOD1; A431, 3 µM) of the same sequence?
The target mRNA inhibition was 29%.

And the target mRNA inhibition (SOD1; A431, 15 µM)?
The target mRNA inhibition was 33%.

And the target mRNA inhibition (SOD1; HepG2, 0.222 µM)?
The target mRNA inhibition was 14%.

And the target mRNA inhibition (SOD1; HepG2, 0.667 µM)?
Its target mRNA inhibition is 39%.

And the target mRNA inhibition (SOD1; HepG2, 2 µM)?
Its target mRNA inhibition is 59%.

What about the target mRNA inhibition (SOD1; HepG2, 6 µM) of the same sequence?
The target mRNA inhibition was 77%.

“TGTTTATCAGGATACAT (sugars e2 k2 d9 k2 e2, PS)” was tested. Which target mRNA inhibition (SOD1; HepG2, 0.1875 µM) did it give?
Its target mRNA inhibition is 37%.

What about the target mRNA inhibition (SOD1; HepG2, 0.75 µM) of the same sequence?
The target mRNA inhibition was 63%.

What about the target mRNA inhibition (SOD1; HepG2, 3 µM) of the same sequence?
The target mRNA inhibition was 83%.

What about the target mRNA inhibition (SOD1; HepG2, 4 µM) of the same sequence?
Its target mRNA inhibition is 83%.

What about the target mRNA inhibition (SOD1; HepG2, 12 µM) of the same sequence?
The target mRNA inhibition was 95%.
